Measurements reported in patent US20100137266A1, “TREATMENT OF INSULIN RESISTANCE AND DISORDERS ASSOCIATED THEREWITH” (UNIVERSITETET I OSLO, priority 2006, published 2010).

Test system: MyoD and myogenin
Assay: Expression of MyoD and myogenin and differentiation of myoblasts into myotubes
Format: cell-based, human
Method: FIG. 1. Expression of MyoD (A) and myogenin (B) during differentiation of myoblasts. During the differentiation process, cells were harvested on day-2 until day 8. Some cell cultures were treated with ±1 μM T0901317 from day 2 until day 6. Equal amount of total RNA from each donor (n=4) were pooled, reversely transcribed and analyzed by Real-Time RT-PCR. Expression of MyoD and myogenin was normalized to GAPDH. RNA isolation and analysis of gene expression by RT-PCR. Myotubes were washed, trypsinized and pelleted before total RNA was isolated by RNeasy Mini kit (Qiagen Sciences, Oslo, Norway) or Agilent Total RNA Mini kit (Matrix, Oslo, Norway) according to the suppliers total RNA isolation protocol. […] DNA expression was determined by SYBR® Green (Applied Biosystems), and primers [36B4 (Acc#M17885), ACSL1 (Acc#NM-001995), ABCA1 (Acc#AF165281), CD36 (Acc#L06850), FAS (Acc#U26644), GAPDH (Acc#J104038/M33197, GLUT4 (Acc#M20747), LXRα (Acc#U22662), LXR (Acc#U07132), Myogenin (Acc#X17651), MyoD (Acc#BC064493), PPARα (Acc#L02932), PPARδ (Acc#BC002715), PPARγ (Acc#L40904), SCD-1 (Acc#AB032261), SREBP1c (Acc#U00968)], GLUT1, (Acc#03195), GLUT3 ([…]) were designed using Primer Express® (Applied Biosystems). Each target gene was quantified in triplicates and carried out in a 25 μl reaction volume according to the suppliers protocol. […]

**Q.** Which results are given for `O=S(=O)(c1ccccc1)N(CC(F)(F)F)c1ccc(C(O)(C(F)(F)F)C(F)(F)F)cc1` [Example T0901317]?
**A.** expression levels of MyoD and myogenin (1 μM from day 2 until day 6): did not seem to interfere; differentiation of myoblasts into multinucleated myotubes by light microscopy (with and without LXR agonist treatment, data not shown): normal differentiation
